Source: patent US20070219203A1, “Arylalkylamino-substituted quinazoline analogues” (Neurogen Corporation, priority 2004, published 2007)

Molecular target: T1, human capsaicin receptor (Homo sapiens, UniProt Q8NER1)
T1 construct: expressed in transfected cells
Experiment: Calcium mobilization assay, antagonist activity (Example 6)
Type: cell-based
Conditions: Table I; 50% decrease in fluorescence response of cells expressing human capsaicin receptor exposed to capsaicin
Experimental: A cDNA encoding full length human capsaicin receptor (SEQ ID NO:1, 2 or 3 of U.S. Pat. No. 6,482,611) is subcloned in the plasmid pBK-CMV (Stratagene, La Jolla, Calif.) for recombinant expression in mammalian cells.
Human embryonic kidney (HEK293) cells are transfected with the pBK-CMV expression construct encoding the full length human capsaicin receptor using standard methods. The transfected cells are selected for two weeks in media containing G418 (400 μg/ml) to obtain a pool of stably transfected cells. Independent clones are isolated from this pool by limiting dilution to obtain clonal stable cell lines for use in subsequent experiments.
Cells transfected with expression plasmids (as described in Example 4) and thereby expressing human capsaicin receptor are seeded and grown to 70-90% confluency in FALCON black-walled, clear-bottomed 96-well plates (#3904, BECTON-DICKINSON, Franklin Lakes, N.J.). The culture medium is emptied from the 96 well plates and […] calcium sensitive dye (Molecular Probes, Eugene, Oreg.) is added to each well (dye solution: 1 mg […], 440 μL DMSO and 440 μl 20% pluronic acid in DMSO, diluted 1:250 in Krebs-Ringer HEPES (KRH) buffer (25 mM HEPES, 5 mM KCl, 0.96 mM NaH2PO4, 1 mM MgSO4, 2 mM CaCl2, 5 mM glucose, 1 mM probenecid, pH 7.4), 50 μl diluted solution per well). Plates are covered with aluminum foil and incubated at 37° C. for 1-2 hours in an environment containing 5% CO2. After the incubation, the dye is emptied from the plates, and the cells are washed once with KRH buffer, and resuspended in KRH buffer.
To measure the ability of a test compound to agonize or antagonize a calcium mobilization response in cells expressing capsaicin receptors to capsaicin or other vanilloid agonist, the EC50 of the agonist capsaicin is first determined. An additional 20 μl of KRH buffer and 1 μl DMSO is added to each well of cells, prepared as described above. 100 μl capsaicin in KRH buffer is automatically transferred by the FLIPR instrument to each well. Capsaicin-induced calcium mobilization is monitored using either FLUOROSKAN ASCENT (Labsystems; Franklin, Mass.) or FLIPR (fluorometric imaging plate reader system; Molecular Devices, Sunnyvale, Calif.) instruments. Data obtained between 30 and 60 seconds after agonist application are used to generate an 8-point concentration response curve, with final capsaicin concentrations of 1 nM to 3 μM. KALEIDAGRAPH software (Synergy Software, Reading, Pa.) is used to fit the data to the equation: y=a*(1/(1+(b/x)^c)) to determine the 50% excitatory concentration (EC50) for the response. In this equation, y is the maximum fluorescence signal, x is the concentration of the agonist or antagonist (in this case, capsaicin), a is the Emax, b corresponds to the EC50 value and c is the Hill coefficient. Determination of Agonist Activity
Test compounds are dissolved in DMSO, diluted in 20 μl KRH buffer so that the final concentration of test compounds in the assay well is between 1 μM and 5 μM, and added to cells prepared as described above. The 96 well plates containing prepared cells and test compounds are incubated in the dark, at room temperature for 0.5 to 6 hours. It is important that the incubation not continue beyond 6 hours. Just prior to determining the fluorescence response, 100 μl capsaicin in KRH buffer at twice the EC50 concentration determined as described above is automatically added by the FLIPR instrument to each well of the 96 well plate for a final sample volume of 200 μl and a final capsaicin concentration equal to the EC50. The final concentration of test compounds in the assay wells is between 1 μM and 5 μM. […] The concentration of antagonist required to provide a 50% decrease, relative to the response observed in the presence of capsaicin and without antagonist, is the IC50 for the antagonist, and is preferably below 1 micromolar, 100 nanomolar, 10 nanomolar or 1 nanomolar.

T1 sequence (Q8NER1 whole entry): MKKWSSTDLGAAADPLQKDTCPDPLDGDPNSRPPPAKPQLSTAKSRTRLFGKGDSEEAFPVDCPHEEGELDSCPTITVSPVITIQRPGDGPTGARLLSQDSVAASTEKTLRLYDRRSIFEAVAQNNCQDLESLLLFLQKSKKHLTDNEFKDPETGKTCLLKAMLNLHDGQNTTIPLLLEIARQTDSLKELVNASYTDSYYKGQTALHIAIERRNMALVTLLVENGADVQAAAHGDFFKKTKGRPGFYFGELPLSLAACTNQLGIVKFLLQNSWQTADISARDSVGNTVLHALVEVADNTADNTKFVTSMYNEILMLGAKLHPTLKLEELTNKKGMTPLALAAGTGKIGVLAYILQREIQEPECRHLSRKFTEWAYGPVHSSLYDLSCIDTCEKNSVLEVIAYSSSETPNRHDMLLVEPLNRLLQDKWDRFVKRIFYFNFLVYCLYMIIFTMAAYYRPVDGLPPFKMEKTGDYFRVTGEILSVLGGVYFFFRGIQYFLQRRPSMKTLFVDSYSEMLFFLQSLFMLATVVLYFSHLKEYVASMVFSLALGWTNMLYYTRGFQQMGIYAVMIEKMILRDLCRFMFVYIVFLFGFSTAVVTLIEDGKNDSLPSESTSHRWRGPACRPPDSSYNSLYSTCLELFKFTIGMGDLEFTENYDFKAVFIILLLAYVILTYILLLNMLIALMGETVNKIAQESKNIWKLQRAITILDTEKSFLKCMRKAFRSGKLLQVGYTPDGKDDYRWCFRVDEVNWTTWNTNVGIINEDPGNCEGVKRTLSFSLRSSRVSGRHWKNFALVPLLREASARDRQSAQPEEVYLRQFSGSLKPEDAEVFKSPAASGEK

IC50, ≤ 1000 nM:
CCOCc1nc(NCCc2ccccc2C(F)(F)F)c2ccc(-c3ncccc3Cl)nc2n1 [Compound 56, 7-(3-chloropyridin-2-yl)-2-(ethoxymethyl)-N-{2-[2-(trifluoromethyl)phenyl]ethyl}pyrido [2,3-d]pyrimidin-4-amine]
CCOCc1nc(NCCc2ccc(F)cc2)c2ccc(-c3ncccc3Cl)nc2n1 [Compound 53, 7-(3-chloropyridin-2-yl)-2-(ethoxymethyl)-N-[2-(4-fluorophenyl)ethyl]pyrido[2,3-d]pyrimidin-4-amine]
C[C@H](CNc1ncnc2cc(-c3ncccc3C(F)(F)F)ccc12)c1ccccc1 [Compound 25, N-[(2S)-2-phenylpropyl]-7-[3 (trifluoromethyl)pyridin-2-yl]quinazolin-4-amine]
CC(C)COCc1nc(NCCc2cccc(F)c2)c2ccc(-c3ncccc3C(F)(F)F)nc2n1 [Compound 36, N-[2-(3-fluorophenyl)ethyl]-2-(isobutoxymethyl)-7-[3-(trifluoromethyl)pyridin-2-yl]pyrido[2,3-d]pyrimidin-4-amine]
CC(C)COCc1nc(NCC(=O)c2cccc(Cl)c2)c2ccc(-c3ncccc3C(F)(F)F)nc2n1 [Compound 60, 1-(3-chlorophenyl)-2-({2-(isobutoxymethyl)-7-[3-(trifluoromethyl)pyridin-2-yl]pyrido[2,3-d]pyrimidin-4-yl}amino)ethanone]
FC(F)(F)c1cccc(CCNc2ncnc3cc(-c4ncccc4C(F)(F)F)ccc23)c1 [Compound 16, N-{2-[3-(trifluoromethyl)phenyl]ethyl}-7-[3-(trifluoromethyl)pyridin-2-yl]quinazolin-4-amine]
Fc1cccc(F)c1CCNc1ncnc2cc(-c3ncccc3C(F)(F)F)ccc12 [Compound 26, N-[2-(2,6-difluorophenyl)ethYl]-7-[3-(trifluoromethyl)pyridin-2-yl]quinazolin-4-amine]
FC(F)(F)c1ccccc1CCNc1ncnc2cc(-c3ncccc3C(F)(F)F)ccc12 [Compound 15, N-{2-[2-(trifluoromethyl)phenyl]ethyl}-7-[3-(trifluoromethyl)pyridin-2-yl]quinazolin-4-amine]
C[C@@H](CNc1ncnc2cc(-c3ncccc3C(F)(F)F)ccc12)c1ccccc1 [Compound 23, N-[(2R)~2-phenylpropyll]-7-[3-(trifluoromethyl)pyridin-2-yl]quinazolin-4-amine]
CC(C)COCc1nc(NC2Cc3ccccc3C2)c2ccc(-c3ncccc3Cl)nc2n1 [Compound 61, 7-(3-chloropyridin-2-yl)-N-(2,3-dihydro-1H-inden-2-yl)-2-(isobutoxymethyl)pyrido[2,3-d]pyrimidin-4-amine]
CC(C)COCc1nc(NCCc2ccccc2C(F)(F)F)c2ccc(-c3ncccc3Cl)nc2n1 [Compound 50, 7-(3-chloropyridin-2-yl)-2-(isobutoxymethyl)-N-{2-[2-(trifluoromethyl)phenyl]ethyl}pyrido[2,3-d]pyrimidin-4-amine]
FC(F)(F)c1cccnc1-c1ccc2c(NCCc3ccc(Cl)cc3)ncnc2c1 [Compound 14, N-[2-(4-chlorophenyl)ethyl]-7-[3-(trifluoromethyl)pyridin-2-yl]quinazolin-4-amine]
Fc1cccc(CCNc2ncnc3cc(-c4ncccc4C(F)(F)F)ccc23)c1 [Compound 7, N-[2-(3-fluorophenyl)ethyl]-7-[3-(trifluoromethyl)pyridin-2-yl]quinazolin-4-amine]
CC(C)COCc1nc(NCCc2ccc(F)cc2)c2ccc(-c3ncccc3C(F)(F)F)nc2n1 [Compound 37, N-[2-(4-fluorophenyl)ethyl]-2-(isobutoxymethyl)-7-[3-(trifluoromethyl)pyridin-2-yl]pyrido[2,3-d]pyrimidin-4-amine]
C[C@@H]1CN(Cc2nc(NCCc3ccccc3Cl)c3ncc(-c4ncccc4Cl)cc3n2)C[C@H](C)O1 [Compound 29, N-[2-(2-chlorophenyl)ethyl]-7-(3-chloropyridin-2-yl)-2-{[(2R,6S)-2,6-dimethylmorpholin-4-yl]methyl}pyrido[3,2-d]pyrimidin-4-amine]

Same assay, conditions: Table II; 50% decrease in fluorescence response of cells expressing human capsaicin receptor exposed to capsaicin

IC50, ≤ 1000 nM:
C[C@@H]1CN(Cc2nc(NCCc3ccccc3Cl)c3ccc(-c4ncccc4Cl)cc3n2)C[C@@H](C)O1 (stereo in doubt) [Compound 166, [2-(2-Chloro-phenyl)-ethyl]-[7-(3-chloro-pyridin-2-yl)-2-(2,6-dimethyl-morpholin-4-ylmethyl)-quinazolin-4-yl]-amine]
FC(F)(F)c1cccnc1-c1ccc2c(N[C@H]3CCCc4ccccc43)ncnc2c1 [Compound 81, (1,2,3,4-Tetrahydro-naphthalen-1-yl)-[7-(3-trifluoromethyl-pyridin-2-yl)-quinazolin-4-yl]-amine]
CC1CCN(Cc2nc(NCCc3ccccc3)c3ccc(-c4ncccc4C(F)(F)F)cc3n2)CC(C)(C)C1 (centres unmarked) [Compound 106, Phenethyl-[7-(3-trifluoromethyl-pyridin-2-yl)-2-(3,3,5-trimethyl-azepan-1-ylmethyl)-quinazolin-4-yl]-amine]
CCCCCCN(CCCCCC)Cc1nc(NCCc2ccccc2)c2ccc(-c3ncccc3C(F)(F)F)cc2n1 [Compound 173, [2-Dihexylaminomethyl-7-(3-trifluoromethyl-pyridin-2-yl)-quinazolin-4-yl]-phenethyl-amine]
C=C(C)CN(CC)Cc1nc(NCCc2ccccc2C)c2ccc(-c3ncccc3C(F)(F)F)cc2n1 [Compound 155, [2-{[Ethyl-(2-methyl-allyl)-amino]-methyl}-7-(3-trifluoromethyl-pyridin-2-yl)-quinazolin-4-yl]-(2-o-tolyl-ethyl)-amine]
FC(F)(F)c1cccnc1-c1ccc2c(NC3CCc4ccccc43)ncnc2c1 (centres unmarked) [Compound 78, Indan-1-yl-[7-(3-trifluoromethyl-pyridin-2-yl)-quinazolin-4-yl]-amine]
Cc1ccccc1CCNc1nc(CN2CCC(C)CC(C)(C)C2)nc2cc(-c3ncccc3C(F)(F)F)ccc12 (centres unmarked) [Compound 107, (2-o-Tolyl-ethyl)-[7-(3-trifluoromethyl-pyridin-2-yl)-2-(3,3,5-trimethyl-azepan-1-ylmethyl)quinazolin-4-yl]-amine]
CCCCCN(CCCCC)Cc1nc(NCCc2ccccc2Cl)c2ccc(-c3ncccc3C(F)(F)F)cc2n1 [Compound 172, [2-(2-Chloro-phenyl)-ethyl]-[2-dipentylaminomethyl-7-(3-trifluoromethyl-pyridin-2-yl)-quinazolin-4-yl]-amine]
Cc1ccccc1CCNc1nc(CN2CCC3(CC2)OCCO3)nc2cc(-c3ncccc3C(F)(F)F)ccc12 [Compound 110, [2-(1,4-Dioxa-8-aza-spiro[4.5]dec-8-ylmethyl)-7-(3-trifluoromethyl-pyridin-2-yl)-quinazolin-4-yl]-(2-o-tolyl-ethyl)-amine]
CC(C)CC(CNc1ncnc2cc(-c3ncccc3C(F)(F)F)ccc12)c1ccccc1 (centres unmarked) [Compound 72, (4-Methyl-2-phenyl-pentyl)-[7-(3-trifluoromethyl-pyridin-2-yl)-quinazolin-4-yl]-amine]
C=C(C)CN(CC)Cc1nc(NCCc2ccccc2)c2ccc(-c3ncccc3C(F)(F)F)cc2n1 [Compound 154, [2-{[Ethyl-(2-methyl-allyl)-amino]-methyl}-7-(3-trifluoromethyl-pyridin-2-yl)-quinazolin-4-yl]-phenethyl-amine]
